# Results reported in ChEMBL document CHEMBL5505960, “Synthesis and evaluation of butylphthalide-scutellarein hybrids as multifunctional agents for the treatment of Alzheimer's disease” (Eur J Med Chem, 2024).
# Calls of active or inactive are those of the source. The rule behind the calls is not given here.
# Assays:
# [1] = Antioxidant activity assessed as trolox equivalent of ORAC radical scavenging activity by ORAC-FL assay relative to trolox; type: functional
# [2] = target: Amyloid-beta precursor protein (Homo sapiens) (UniProt P05067); assay: Inhibition of amyloid beta (1 to 42) (unknown origin) self induced aggregation at 25 uM by ThT fluorescence assay relative to control
# [3] = target: Amyloid-beta precursor protein (Homo sapiens) (UniProt P05067); assay: Inhibition of Cu2+ induced amyloid beta (1 to 42)(unknown origin) fibrillation at 25 uM by ThT fluorescence assay relative to control
# [4] = target: Amyloid-beta precursor protein (Homo sapiens) (UniProt P05067); assay: Disaggregation of self-induced amyloid beta (1 to 42) (unknown origin) fibrils at 25 uM by ThT fluorescence assay relative to control
# HT-22 [5] = assay: Neuroprotective activity against amyloid beta (1 to 42) induced cell injury in mouse HT-22 cells assessed as cell viability at 50 uM incubated for 24 hrs by MTT assay; type: functional, cell-based
# HT-22 [6] = assay: Neuroprotective activity against amyloid beta (1 to 42)-induced injury in mouse HT-22 cells assessed as reversal of reduction in cell numbers at 10 uM measured after 24 hrs by MTT assay; type: functional, cell-based
# HT-22 [7] = assay: Neuroprotective activity against amyloid beta (1 to 42)-induced injury in mouse HT-22 cells assessed as reversal of reduced cell synapse length at 10 uM measured after 24 hrs […]; type: functional, cell-based
# BV-2 [8] = assay: Cytotoxicity against mouse BV-2 cells at upto 10 uM measured after 24 hrs by MTT assay; type: toxicity, cell-based; settings: bv-2, 24 h
# BV-2 [9] = assay: Cytotoxicity against LPS-induced mouse BV-2 cells assessed as cell viability at 0.5 to 10 uM incubated for 24 hrs by MTT assay; type: toxicity, cell-based; settings: bv-2, 24 h, dose 0.5-10 µM
# BV-2 [10] = assay: Antineuroinflammatory activity in LPS-induced mouse BV-2 cells assessed as inhibition of NO release at 0.5 uM preincubated for 30 mins followed by LPS stimulation and measured after 24 hrs relative to control; type: functional; parameters: scale not given: the % may be the effect or the level left; settings: time 24.5 hrs
# BV-2 [11] = assay: Antineuroinflammatory activity in LPS-induced mouse BV-2 cells assessed as inhibition of NO release at 2.5 uM preincubated for 30 mins followed by LPS stimulation and measured after 24 hrs relative to control; type: functional; parameters: scale not given: the % may be the effect or the level left; settings: time 24.5 hrs
# BV-2 [12] = assay: Antineuroinflammatory activity in LPS-induced mouse BV-2 cells assessed as inhibition of NO release at 10 uM preincubated for 30 mins followed by LPS stimulation and measured after 24 hrs relative to control; type: functional; parameters: scale not given: the % may be the effect or the level left; settings: time 24.5 hrs
# BV-2 [13] = assay: Antineuroinflammatory activity in LPS-induced mouse BV-2 cells assessed as inhibition of TNF-alpha release at 0.5 uM preincubated for 30 mins followed by LPS stimulation and measured after 24 hrs relative to control; type: functional; parameters: scale not given: the % may be the effect or the level left; settings: time 24.5 hrs
# BV-2 [14] = assay: Antineuroinflammatory activity in LPS-induced mouse BV-2 cells assessed as inhibition of TNF-alpha release at 2.5 uM preincubated for 30 mins followed by LPS stimulation and measured after 24 hrs relative to control; type: functional; parameters: scale not given: the % may be the effect or the level left; settings: time 24.5 hrs
# BV-2 [15] = assay: Antineuroinflammatory activity in LPS-induced mouse BV-2 cells assessed as inhibition of TNF-alpha release at 10 uM preincubated for 30 mins followed by LPS stimulation and measured after 24 hrs relative to control; type: functional; parameters: scale not given: the % may be the effect or the level left; settings: time 24.5 hrs
# BV-2 [16] = assay: Antineuroinflammatory activity in LPS-induced mouse BV-2 cells assessed as inhibition of IL-1 beta release at 0.5 uM preincubated for 30 mins followed by LPS stimulation and measured after 24 hrs relative to control; type: functional; parameters: scale not given: the % may be the effect or the level left; settings: time 24.5 hrs
# BV-2 [17] = assay: Antineuroinflammatory activity in LPS-induced mouse BV-2 cells assessed as inhibition of IL-1 beta release at 2.5 uM preincubated for 30 mins followed by LPS stimulation and measured after 24 hrs relative to control; type: functional; parameters: scale not given: the % may be the effect or the level left; settings: time 24.5 hrs
# BV-2 [18] = assay: Antineuroinflammatory activity in LPS-induced mouse BV-2 cells assessed as inhibition of IL-1 beta release at 10 uM preincubated for 30 mins followed by LPS stimulation and measured after 24 hrs relative to control; type: functional; parameters: scale not given: the % may be the effect or the level left; settings: time 24.5 hrs
# Sequence of Amyloid-beta precursor protein (Homo sapiens) (P05067 whole entry): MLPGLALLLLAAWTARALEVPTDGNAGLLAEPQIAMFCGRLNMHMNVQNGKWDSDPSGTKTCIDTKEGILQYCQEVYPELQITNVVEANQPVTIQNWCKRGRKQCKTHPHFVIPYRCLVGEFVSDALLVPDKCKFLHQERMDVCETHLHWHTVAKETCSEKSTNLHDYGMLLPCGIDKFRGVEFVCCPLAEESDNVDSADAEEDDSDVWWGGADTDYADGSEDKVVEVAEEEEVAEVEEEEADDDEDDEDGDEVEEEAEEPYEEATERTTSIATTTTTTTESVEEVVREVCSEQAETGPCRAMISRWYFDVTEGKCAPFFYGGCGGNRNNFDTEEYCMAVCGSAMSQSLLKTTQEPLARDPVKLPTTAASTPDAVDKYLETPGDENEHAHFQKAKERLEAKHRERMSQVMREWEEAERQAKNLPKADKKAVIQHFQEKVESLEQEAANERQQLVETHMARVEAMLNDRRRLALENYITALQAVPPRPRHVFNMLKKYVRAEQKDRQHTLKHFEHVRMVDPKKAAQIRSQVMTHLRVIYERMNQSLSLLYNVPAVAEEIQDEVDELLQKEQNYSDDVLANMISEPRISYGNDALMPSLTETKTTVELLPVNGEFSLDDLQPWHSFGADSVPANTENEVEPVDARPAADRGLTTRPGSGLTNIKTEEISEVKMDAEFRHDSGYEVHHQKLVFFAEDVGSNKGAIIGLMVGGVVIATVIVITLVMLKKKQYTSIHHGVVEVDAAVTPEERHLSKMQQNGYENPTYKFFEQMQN
SMILES,Activity [1],inhibition [2],also measured
C=CCCCCC1OC(=O)c2c1cc(OC)c(OC)c2O (stereo not drawn),1.77,19.2%,
C=CC(C)(C)C1OC(=O)c2c1cc(OC)c(OC)c2OC (stereo not drawn),0.45,15%,
CCCCCCC1OC(=O)c2c1cc(OC)c(O)c2O (stereo not drawn),2.5,83.3%,inhibition [3]: 30.5%; Activity [4]: 32.3%
C=CCCC1OC(=O)c2c1cc(OC)c(OC)c2OC (stereo not drawn),0.53,24.3%,
CCCCCC1OC(=O)c2c1cc(OC)c(O)c2OC (stereo not drawn),2.08,19.4%,
C=CCCCCCC1OC(=O)c2c1cc(OC)c(OC)c2OC (stereo not drawn),0.46,19.2%,
CCCCC1OC(=O)c2c1cc(OC)c(O)c2OC (stereo not drawn),1.59,23.4%,
CCCCCCC1OC(=O)c2c1cc(OC)c(OC)c2OC (stereo not drawn),0.68,25.2%,
CCCCCC1OC(=O)c2c1cc(OC)c(OC)c2OC (stereo not drawn),0.47,19.4%,
CCCCCCC1OC(=O)c2c1cc(OC)c(OC)c2O (stereo not drawn),1.44,25.2%,
C=CCCCC1OC(=O)c2c1cc(OC)c(OC)c2O (stereo not drawn),1.68,24.6%,
CCCCC1OC(=O)c2c1cc(OC)c(O)c2O (stereo not drawn),2.36,78.8%,inhibition [3]: 28.5%; Activity [4]: 39.5%
C=CCC1OC(=O)c2c1cc(OC)c(OC)c2O (stereo not drawn),1.71,< 5%,
C=CCC1OC(=O)c2c1cc(OC)c(OC)c2OC (stereo not drawn),0.41,25.4%,
CCCCCCC1OC(=O)c2c1cc(OC)c(O)c2OC (stereo not drawn),1.6,29.1%,
CCCCCCCC1OC(=O)c2c1cc(OC)c(OC)c2O (stereo not drawn),1.34,26.4%,
CCCCC1OC(=O)c2c1cc(OC)c(OC)c2O (stereo not drawn),1.27,30.2%,
C=CCCCCC1OC(=O)c2c1cc(OC)c(OC)c2OC (stereo not drawn),0.61,17.6%,
CCCCC1OC(=O)c2c1cc(OC)c(OC)c2OC (stereo not drawn),0.4,15.9%,
CCCCC1OC(=O)c2ccccc21 (racemic) [RAC-3-N-BUTYLPHTHALIDE],0.23,,Activity (HT-22 [5]): Active; Activity (HT-22 [6]): inactive; Activity (HT-22 [7]): inactive; Activity (BV-2 [8]): Non-Toxic; Activity (BV-2 [9]): Non-Toxic; Activity (BV-2 [10]): 13.3%; Activity (BV-2 [11]): 23.2%; Activity (BV-2 [12]): 45.5%; Activity (BV-2 [13]): 12.6%; Activity (BV-2 [14]): 24%; Activity (BV-2 [15]): 40.6%; Activity (BV-2 [16]): 11.5%; Activity (BV-2 [17]): 21.1%; Activity (BV-2 [18]): 31.3%
C=CCCCC1OC(=O)c2c1cc(OC)c(OC)c2OC (stereo not drawn),0.71,19.2%,
CCCC1OC(=O)c2c1cc(OC)c(OC)c2OC (stereo not drawn),0.39,21.8%,
CCCCCCCC1OC(=O)c2c1cc(OC)c(OC)c2OC (stereo not drawn),0.62,16.5%,
CCCCCC1OC(=O)c2c1cc(OC)c(OC)c2O (stereo not drawn),1.36,35.1%,
C=CCCCCCC1OC(=O)c2c1cc(OC)c(OC)c2O (stereo not drawn),1.81,< 5%,
C=CCCC1OC(=O)c2c1cc(OC)c(OC)c2O (stereo not drawn),1.93,< 5%,
C=CC(C)(C)C1OC(=O)c2c1cc(OC)c(OC)c2O (stereo not drawn),1.94,37.1%,
CCCC1OC(=O)c2c1cc(OC)c(OC)c2O (stereo not drawn),1.21,27.3%,
